{"source": "patent US20120115872A1", "about": "“COMBINATION OF A SODIUM-PROTON EXCHANGER INHIBITOR AND OF A DIHYDRO-1,3,5-TRIAZINE AMINE DERIVATIVE” (Merck Patent GMBH, priority 2009, published 2012)", "format_in_all_cases": "cell-based", "key": {"[1]": {"test_system": "human dermal microvascular endothelial cell line HMEC-1", "experiment": "Mitochondrial membrane potential (TMRM probe, confocal microscopy) in HMEC-1 cells under ischaemia/reperfusion", "description": "The immortalized human dermal microvascular endothelial cell line HMEC-1 was used. […] They were analysed by confocal microscopy before the treatment, after 60 minutes of ischaemia, after 90 minutes of reperfusion and after 120 minutes of reperfusion."}, "[2]": {"test_system": "mitochondrial transient permeability pore (TPP)", "experiment": "Opening of the mitochondrial transient permeability pore (TPP)", "conditions": "during ischaemia and/or reperfusion events"}, "[3]": {"test_system": "complex I of the endothelial cell respiratory chain", "experiment": "Production of ROS by complex I of the endothelial cell respiratory chain", "conditions": "endothelial cells; by inhibiting reverse electron flow"}}, "data": [{"compound": "CC1N=C(N)NC(N(C)C)=N1", "note": "(stereo not shown) [E 008]", "values": [{"measurement": "mitochondrial membrane potential after reperfusion", "setting": "[1]; HMEC-1, 30 min pre-incubation, 60 min ischaemia, reperfusion 90 and 120 min, TMRM 30 nM", "value": "protected against the damage induced by the reperfusion"}, {"measurement": "loss of potential of the mitochondrial membrane", "setting": "[1]; during ischaemia and/or reperfusion events", "value": "prevent the loss of potential of the mitochondrial membrane"}, {"measurement": "opening of the mitochondrial transient permeability pore (TPP)", "setting": "[2]", "value": "reduce the opening of the mitochondrial transient permeability pore (TPP)"}, {"measurement": "production of ROS by complex I of the respiratory chain", "setting": "[3]", "value": "reduce the production of ROS"}]}]}
